Measurements as given in patent US20260265771A1, “METHODS OF INCREASING THE REGENERATION EFFICIENCY IN PLANTS” (Institute of Genetics and Developmental Biology Chinese …, priority 2022, published 2026).
Entries after “also recorded” stand apart in the source; their conditions may differ.

Key:
[1] = tested on: hypocotyl explants of tomato cultivar Ailsa Craig; experiment: Shoot regeneration of tomato hypocotyl explants on shoot inducing medium (SIM); assay type: cell-based
Protocol: FIG. 8—Hypocotyl explants of wild-type (WT) Ailsa Craig and prr mutants cultured in the presence or absence of SIPEP (REF1) at 1 nM in a shoot inducing medium for 21 days.
Relative regeneration frequency was determined by counting the number of regenerated shoots and calculating the average for each group, the average of each group was then divided by the average of the control group.
The number of hypocotyls means explants with varying numbers of regenerated shoots.
To test whether SIPEP (REF1) could rescue shoot regeneration defects in prr mutants were cultured in shoot inducing medium (SIM) in the presence and absence of 1 nM REF1. Shoot regeneration was then scored after 21 days.
Relative regeneration frequency was determined by counting the number of regenerated shoots and calculating the average for each group, the average of each group was then divided by the average of the WT-Mock group.
‘The number of hypocotyls’ means explants with different number of regenerated shoots (0, 1, 2, 3 and ≥4) in each of the genotypes (WT, prr-1, prr-2).
Shoot regeneration was also measured in RER knock out mutants (rer-1 and rer-3) compared to wild type (WT) tomato plants (Ailsa Craig) in the presence and absence of SIPEP (REF1).

[2] = tested on: PI126944 tomatoes; experiment: Shoot regeneration of recalcitrant wild tomato PI126944; assay type: cell-based, S. peruvianum; conditions: PI126944, 1 nM REF1 vs REF1 absent
Protocol: (a) photos of PI126944 grown in the presence and absence of 1 nM REF1. (b) relative regeneration frequency of PI126944 grown in the presence and absence of 1 nM REF1. (c) number of hypocotyl of PI126944 grown in the presence and absence of 1 nM REF1.
(a) Photos of P126944 tomatoes (WT, PRR transformed, RER transformed, and PRR+RER transformed, grown in presence or absence of 1 nM REF1 for 19 days. (b) relative regeneration frequency of P126944 tomatoes (WT, PRR transformed, RER transformed, and PRR+RER transformed, grown in presence or absence of 1 nM REF1 for 19 days.
The effect of exogenously applied REF1 in a shoot inducing growth medium was investigated in PI126944 tomatoes by growing PI126944 tomatoes in the presence and absence of 1 nM REF1.
PI126944 tomatoes were transformed with the PRR+RER-OE construct as well as an equivalent construct only containing PRR and another construct only containing RER. Plants expressing these constructs along with a wild type control were grown in the presence or absence of REF1 for 19 days.

[3] = tested on: RER1-SERKs receptor complex; experiment: Co-immunoprecipitation of RER with SERKs in tobacco leaves; assay type: cell-based, tomato; conditions: 100 nM REF1
Protocol: FIG. 49—REF1-RER1 regulates regeneration through SERK co-receptors. (a) RER1 complexes with SERK1, SERK3a and SERK3b in a REF1-dependent manner. Tobacco leaves transfected with SERKs-myc and RER1-HA-Flag were treated with 100 nM REF1 before IP with anti-myc agarose. RER1 and SERKs were detected by immunoblotting with anti-Flag or anti-myc antibodies, respectively. (b and c) REF1-induced callus formation of indicated genotypes. Hypocotyl explants were cultured on CIM with or without 1 nM REF1 for 14 d before callus phenotype was scored. Shown are representative callus images (b) and quantification of the callus projection area (c). Bars, 1 mm. Data are mean±SE. n=30 hypocotyl explants. (d and e) REF1-induced shoot organogenesis of indicated genotypes. Hypocotyl explants were cultured on CIM for 14 d and then transferred to SIM with or without 1 nM REF1 for 21d before shoot organogenesis phenotype was scored. Shown are representative images of hypocotyl explants (d) and the number of regenerated shoots per explant (e). Bars, 0.5 cm. Data are mean±SE. n=50 hypocotyl explants. In (c), the projected area of callus was quantified by Image J. Box plots represented the distribution of projected callus area. […] In (c) and (e), data points from three biological replicates were analysed with a one-sided Kruskal-Wallis test with Holm correction, followed by post hoc Dunn's test. […]

[4] = WT, prr-1 and prr-2, SIM with 1 nM REF1, 21 days

RER1-SERKs receptor complex, sequence (as listed by the source): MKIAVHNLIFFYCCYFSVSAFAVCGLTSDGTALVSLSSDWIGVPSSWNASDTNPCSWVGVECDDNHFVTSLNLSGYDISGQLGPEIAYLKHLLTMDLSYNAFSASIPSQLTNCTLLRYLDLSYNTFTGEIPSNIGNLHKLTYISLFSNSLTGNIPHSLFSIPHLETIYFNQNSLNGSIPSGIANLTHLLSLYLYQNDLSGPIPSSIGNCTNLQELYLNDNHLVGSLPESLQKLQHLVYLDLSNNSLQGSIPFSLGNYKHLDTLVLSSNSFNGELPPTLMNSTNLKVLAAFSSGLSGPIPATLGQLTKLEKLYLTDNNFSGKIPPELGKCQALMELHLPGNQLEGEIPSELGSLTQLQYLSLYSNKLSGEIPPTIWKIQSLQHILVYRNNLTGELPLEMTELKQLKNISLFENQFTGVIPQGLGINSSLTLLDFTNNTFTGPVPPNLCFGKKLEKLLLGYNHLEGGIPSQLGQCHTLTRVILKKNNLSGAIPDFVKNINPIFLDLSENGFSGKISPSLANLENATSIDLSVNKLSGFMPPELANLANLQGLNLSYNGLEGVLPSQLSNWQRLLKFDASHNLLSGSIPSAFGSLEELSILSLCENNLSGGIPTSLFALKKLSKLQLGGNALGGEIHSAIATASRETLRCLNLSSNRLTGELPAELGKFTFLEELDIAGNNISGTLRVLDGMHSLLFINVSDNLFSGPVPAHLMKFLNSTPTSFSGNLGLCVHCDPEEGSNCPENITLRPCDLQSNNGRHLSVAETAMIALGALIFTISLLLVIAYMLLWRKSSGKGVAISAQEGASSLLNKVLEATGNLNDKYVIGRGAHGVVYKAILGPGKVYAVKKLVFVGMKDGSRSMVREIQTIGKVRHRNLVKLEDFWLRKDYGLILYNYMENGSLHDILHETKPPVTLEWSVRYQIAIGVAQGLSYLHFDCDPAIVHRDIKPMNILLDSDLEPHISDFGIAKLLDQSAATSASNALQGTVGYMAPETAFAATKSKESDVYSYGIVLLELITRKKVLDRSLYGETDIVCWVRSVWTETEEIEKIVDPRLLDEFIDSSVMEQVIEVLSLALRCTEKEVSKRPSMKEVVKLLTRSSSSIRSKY

With “ATDRRGRPPSRPKVGSGPPPQNN (listed as Solanum lycopersicum) [REF1, 23 amino acid tomato peptide cleaved from precursor PROSIPEP]” the shoot regeneration ([1]; WT Ailsa Craig, SIM with 1 nM REF1 vs without, 21 days) was “increased; also recorded: highest”, the number of hypocotyl [1, 4] was “increased” and the relative regeneration frequency [1, 4] was “increased”. The shoot regeneration ([1]; prr-1 and prr-2 mutants, SIM with 1 nM REF1, 21 days) was “rescued”, the “REF1 induced shoot regeneration (shoot regeneration frequency, number of hypocotyl)” value ([1]; rer-1 and rer-3 knockouts, presence vs absence of REF1) was “did not lead to any increase; also recorded: defective” and the number of hypocotyl [2] was “higher”. For the same sequence, the “relative regeneration frequency, increase” value [2] was 5.5 fold, the shoot regeneration [2] was “greater shoot regeneration; also recorded: promotes shoot regeneration” and the “complex formation of RER with SERK1, SERK3a and SERK3b (co-IP)” value [3] was “could simulate complex formation; also recorded: REF1-dependent”.
